Some results are limits rather than exact numbers.

Assay [1] concerns the target T1, PI3Kg (Homo sapiens, UniProt P48736).
T1 construct: Truncated PI3Kγ, residues 114-1102, N-terminally labeled with polyHis tag; polyHis (N); made in house; host or cells: Hi5 insect cells (baculovirus)
Kind of assay: In vitro enzyme assay, PI3K gamma. The assay is classed as biochemical. The conditions noted are these: for PI3K: g/d: ratio of gamma to delta IC50. As to the method: (§1) Full length p110 subunits of PI3k α, β and δ, N-terminally labeled with polyHis tag, were coexpressed with p85 with Baculo virus expression vectors in sf9 insect cells. P110/p85 heterodimers were purified by sequential Ni-NTA, Q-HP, Superdex-100 chromatography. Purified α, β and δ isozymes were stored at −20° C. in 20 mM Tris, pH 8, 0.2M NaCl, 50% glycerol, 5 mM DTT, 2 mM Na cholate. Truncated PI3Kγ, residues 114-1102, N-terminally labeled with polyHis tag, was expressed with Baculo virus in Hi5 insect cells. The γ isozyme was purified by sequential Ni-NTA, Superdex-200, Q-HP chromatography. The γ isozyme was stored frozen at −80° C. in NaH2PO4, pH 8, 0.2M NaCl, 1% ethylene glycol, 2 mM β-mercaptoethanol.
(§2) Assays were performed in 25 μL with the above final concentrations of components in white polyproplyene plates (Costar 3355). Phospatidyl inositol phosphoacceptor, PtdIns(4,5)P2 P4508, was from Echelon Biosciences. The ATPase activity of the alpha and gamma isozymes was not greatly stimulated by PtdIns(4,5)P2 under these conditions and was therefore omitted from the assay of these isozymes. Test compounds were dissolved in dimethyl sulfoxide and diluted with three-fold serial dilutions. The compound in DMSO (1 μL) was added per test well, and the inhibition relative to reactions containing no compound, with and without enzyme was determined After assay incubation at rt, the reaction was stopped and residual ATP determined by addition of an equal volume of a commercial ATP bioluminescence kit (Perkin Elmer EasyLite) according to the manufacturer's instructions, and detected using a AnalystGT luminometer.

Assay [2] deals with T2, PI3Kb (Homo sapiens, UniProt P42338). As to the kind of experiment: In vitro enzyme assay, PI3K beta. The assay is classed as biochemical. The arrangement: Full length p110 subunits of PI3k α, β and δ, N-terminally labeled with polyHis tag; polyHis (N); made in house; host or cells: Sf9 insect cells (baculovirus). The conditions noted are these: read-out: P13K b IC50. The method, then:
as §1, §2

The test system of assay [3] is PI3K b. Kind of assay: In vitro enzyme assay, PI3K beta. The format is biochemical. The conditions noted are these: ratio of beta to delta IC50. The method, then:
as §1, §2

The target in assay [4] is T3, PI3KIII (Homo sapiens, UniProt Q8NEB9).
T3 construct: host or cells: U2OS EGFP-2XFYVE cells
T3 sequence (Q8NEB9 whole entry): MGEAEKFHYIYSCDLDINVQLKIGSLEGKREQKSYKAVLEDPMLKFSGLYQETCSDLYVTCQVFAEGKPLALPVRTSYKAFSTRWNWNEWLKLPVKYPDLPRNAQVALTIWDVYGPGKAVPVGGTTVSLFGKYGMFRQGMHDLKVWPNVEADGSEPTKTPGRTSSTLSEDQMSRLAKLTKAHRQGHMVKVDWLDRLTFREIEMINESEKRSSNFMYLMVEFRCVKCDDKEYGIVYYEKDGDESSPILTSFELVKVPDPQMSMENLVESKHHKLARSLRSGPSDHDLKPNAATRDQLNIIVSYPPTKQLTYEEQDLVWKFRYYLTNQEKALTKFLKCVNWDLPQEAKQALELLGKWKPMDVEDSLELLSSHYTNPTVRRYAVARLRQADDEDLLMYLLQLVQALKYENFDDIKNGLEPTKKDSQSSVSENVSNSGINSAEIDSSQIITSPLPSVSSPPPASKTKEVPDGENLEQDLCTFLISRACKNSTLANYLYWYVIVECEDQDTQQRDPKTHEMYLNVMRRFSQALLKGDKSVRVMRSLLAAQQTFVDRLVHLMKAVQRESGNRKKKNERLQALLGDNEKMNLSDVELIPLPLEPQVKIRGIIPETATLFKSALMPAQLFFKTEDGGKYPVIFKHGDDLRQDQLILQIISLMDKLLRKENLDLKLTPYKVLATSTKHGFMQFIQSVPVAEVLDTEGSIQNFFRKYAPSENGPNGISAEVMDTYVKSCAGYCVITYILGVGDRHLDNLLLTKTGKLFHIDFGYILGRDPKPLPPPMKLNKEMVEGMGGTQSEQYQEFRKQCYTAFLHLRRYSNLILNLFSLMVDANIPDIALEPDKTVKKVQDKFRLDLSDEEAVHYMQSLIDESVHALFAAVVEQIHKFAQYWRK
Kind of assay: Class III PI(3)P assay (U20S EGFP-2XFYVE cells). The assay is classed as cell-based. As to the method:
(§3) GFP Assays for Detecting Inhibition of Class Ia and Class III PI3K
FYVE domains bind to PI(3)P. the majority is generated by constitutive action of PI3K Class III
Class III PI(3)P assay (U20S EGFP-2XFYVE Cells/GE Healthcare)
Wash cells with assay buffer. Treat with compounds in assay buffer 1 h. Fix and image.
Control for all 3 assays is […] Wortmannin:
PI(3)P depleted from endosomes

Assay [5] relates to pAKT. Kind of assay: pAKT in vivo assay. The conditions noted are these: mice, p.o.; for in vivo pAKT data, ED50 (uM) WB: first value of the cell; for in vivo pAKT data, ED50 (uM) spleenocytes: second value of the cell. The method, then: Vehicle and compounds are administered p.o. (0.2 mL) by gavage (Oral Gavage Needles Popper & Sons, New Hyde Park, N.Y.) to mice (Transgenic Line 3751, female, 10-12 wks Amgen Inc, Thousand Oaks, Calif.) 15 min prior to the injection i.v (0.2 mLs) of anti-IgM FITC (50 ug/mouse) (Jackson Immuno Research, West Grove, Pa.). After 45 min the mice are sacrificed within a CO2 chamber. Blood is drawn via cardiac puncture (0.3 mL) (1cc 25 g Syringes, Sherwood, St. Louis, Mo.) and transferred into a 15 mL conical vial (Nalge/Nunc International, Denmark). Blood is immediately fixed with 6.0 mL of BD Phosflow Lyse/Fix Buffer (BD Bioscience, San Jose, Calif.), inverted 3X's and placed in 37° C. water bath. Half of the spleen is removed and transferred to an eppendorf tube containing 0.5 mL of PBS (Invitrogen Corp, Grand Island, N.Y.). The spleen is crushed using a tissue grinder (Pellet Pestle, Kimble/Kontes, Vineland, N.J.) and immediately fixed with 6.0 mL of BD Phosflow Lyse/Fix buffer, inverted 3X's and placed in 37° C. water bath. Once tissues have been collected the mouse is cervically-dislocated and carcass to disposed. After 15 min, the 15 mL conical vials are removed from the 37° C. water bath and placed on ice until tissues are further processed. Crushed spleens are filtered through a 70 μm cell strainer (BD Bioscience, Bedford, Mass.) into another 15 mL conical vial and washed with 9 mL of PBS. Splenocytes and blood are spun @ 2,000 rpms for 10 min (cold) and buffer is aspirated. Cells are resuspended in 2.0 mL of cold (−20° C.) 90% methyl alcohol (Mallinckrodt Chemicals, Phillipsburg, N.J.). MeOH is slowly added while conical vial is rapidly vortexed. Tissues are then stored at −20° C. until cells can be stained for FACS analysis.

Assay [6] has as its target T4, PI3Ka (Homo sapiens, UniProt P42336).
T4 construct: Full length p110 subunits of PI3k α, β and δ, N-terminally labeled with polyHis tag; polyHis (N); made in house; host or cells: Sf9 insect cells (baculovirus)
Kind of assay: In vitro enzyme assay, PI3K alpha. The assay is classed as biochemical. The note with it: for PI3K: a/d: ratio of alpha to delta IC50. As to the method:
as §1, §2

In assay [7] the test system is mu splenocytes pAKT. Kind of assay: on target anti-IgM mu splenocytes pAKT. The conditions noted are these: Mus musculus, Splenocyte, read-out: on target anti-IgM mu splenocytes pAKT (Hu splenocytes PAKT). The assay is classed as cell-based.
The target in assay [8] is T2, PI3Kb. Kind of assay: PI3Kb MB MDA468 cell assay. The assay is classed as cell-based. Also noted: endogenous in cells; host or cells: MDA MB468 (Forkhead-DiversaGFP) cells. The conditions noted are these: second value of the cell; read-out: PI3KbMBMDA468.
Assay [9] has as its target T5, PI3K d (Homo sapiens, UniProt O00329).
T5 construct: Full length p110 subunits of PI3k α, β and δ, N-terminally labeled with polyHis tag; polyHis (N); made in house; host or cells: Sf9 insect cells (baculovirus)
Kind of assay: In vitro enzyme assay, PI3K delta. The format is biochemical. As to the method: as §1, §2

The target in assay [10] is T2, PI3Kb. As to the kind of experiment: Forkhead translocation assay (MDA MB468 Forkhead-DiversaGFP cells). The format is cell-based. Also noted: endogenous in cells; host or cells: MDA MB468 (Forkhead-DiversaGFP) cells. The note with it: first value of the cell; MDA468 forkhead; read-out: PI3KbMDA468 FH. The method, then:
as §3
Forkhead (FKHRL1) is a substrate for AKT1. It is cytoplasmic when phosphorylated by AKT (survival/growth). Inhibition of AKT (stasis/apoptosis)-forkhead translocation to the nucleus
Forkhead Translocation Assay (MDA MB468 Forkhead-DiversaGFP Cells)
Treat cells with compound in growth medium 1 h. Fix and image.

The subject of assay [11] is mouse model of rheumatoid arthritis. The conditions noted are these: in vivo; cited from earlier work.
Assay [12] deals with model of systemic lupus erythematosis. The note with it: in vivo; cited from earlier work.

T4 sequence (P42336 whole entry): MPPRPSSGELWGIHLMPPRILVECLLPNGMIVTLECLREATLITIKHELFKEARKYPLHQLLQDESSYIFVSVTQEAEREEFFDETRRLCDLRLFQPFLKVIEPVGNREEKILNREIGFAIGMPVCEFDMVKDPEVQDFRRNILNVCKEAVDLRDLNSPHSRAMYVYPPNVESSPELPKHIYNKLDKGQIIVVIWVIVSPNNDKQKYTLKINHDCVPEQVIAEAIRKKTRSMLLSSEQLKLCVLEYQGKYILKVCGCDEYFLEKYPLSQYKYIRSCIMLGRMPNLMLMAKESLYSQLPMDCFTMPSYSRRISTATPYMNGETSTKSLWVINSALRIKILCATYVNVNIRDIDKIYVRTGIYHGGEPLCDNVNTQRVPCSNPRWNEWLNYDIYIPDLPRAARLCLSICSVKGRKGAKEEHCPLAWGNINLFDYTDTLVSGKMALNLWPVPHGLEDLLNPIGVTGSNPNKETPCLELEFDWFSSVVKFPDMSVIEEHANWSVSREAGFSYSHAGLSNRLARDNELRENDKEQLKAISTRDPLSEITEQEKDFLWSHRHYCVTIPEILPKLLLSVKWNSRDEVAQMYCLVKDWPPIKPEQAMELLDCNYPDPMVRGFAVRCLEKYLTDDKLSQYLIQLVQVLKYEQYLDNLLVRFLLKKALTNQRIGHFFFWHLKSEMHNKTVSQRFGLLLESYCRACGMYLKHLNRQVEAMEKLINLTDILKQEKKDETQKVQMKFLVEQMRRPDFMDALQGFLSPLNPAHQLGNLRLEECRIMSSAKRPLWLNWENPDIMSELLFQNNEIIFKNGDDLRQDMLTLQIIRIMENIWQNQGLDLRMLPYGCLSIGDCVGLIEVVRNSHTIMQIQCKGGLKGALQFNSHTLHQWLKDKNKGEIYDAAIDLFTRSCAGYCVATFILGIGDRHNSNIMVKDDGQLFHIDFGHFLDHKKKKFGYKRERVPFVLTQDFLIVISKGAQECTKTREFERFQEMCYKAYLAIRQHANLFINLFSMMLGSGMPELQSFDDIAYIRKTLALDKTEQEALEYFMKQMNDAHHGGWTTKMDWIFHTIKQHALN
T4 sequence (P27986 whole entry partner): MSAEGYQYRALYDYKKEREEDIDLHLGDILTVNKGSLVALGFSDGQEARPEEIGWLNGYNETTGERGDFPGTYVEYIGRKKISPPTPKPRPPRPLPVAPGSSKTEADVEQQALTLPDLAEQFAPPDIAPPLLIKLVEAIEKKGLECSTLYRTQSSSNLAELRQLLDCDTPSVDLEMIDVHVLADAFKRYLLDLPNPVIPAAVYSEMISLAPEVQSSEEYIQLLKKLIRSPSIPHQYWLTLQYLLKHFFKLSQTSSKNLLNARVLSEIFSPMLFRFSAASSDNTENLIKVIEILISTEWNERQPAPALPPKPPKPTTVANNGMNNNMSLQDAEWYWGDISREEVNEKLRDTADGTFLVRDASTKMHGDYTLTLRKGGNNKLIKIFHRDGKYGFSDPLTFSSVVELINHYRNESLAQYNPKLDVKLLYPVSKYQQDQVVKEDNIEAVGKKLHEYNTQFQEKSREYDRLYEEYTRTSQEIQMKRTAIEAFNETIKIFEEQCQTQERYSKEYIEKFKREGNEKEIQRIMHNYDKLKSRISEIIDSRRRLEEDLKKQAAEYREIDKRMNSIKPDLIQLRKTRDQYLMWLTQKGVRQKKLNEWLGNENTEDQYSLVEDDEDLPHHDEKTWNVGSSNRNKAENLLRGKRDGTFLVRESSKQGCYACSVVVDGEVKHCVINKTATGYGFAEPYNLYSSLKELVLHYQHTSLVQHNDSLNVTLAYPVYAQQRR
T5 sequence (O00329 whole entry): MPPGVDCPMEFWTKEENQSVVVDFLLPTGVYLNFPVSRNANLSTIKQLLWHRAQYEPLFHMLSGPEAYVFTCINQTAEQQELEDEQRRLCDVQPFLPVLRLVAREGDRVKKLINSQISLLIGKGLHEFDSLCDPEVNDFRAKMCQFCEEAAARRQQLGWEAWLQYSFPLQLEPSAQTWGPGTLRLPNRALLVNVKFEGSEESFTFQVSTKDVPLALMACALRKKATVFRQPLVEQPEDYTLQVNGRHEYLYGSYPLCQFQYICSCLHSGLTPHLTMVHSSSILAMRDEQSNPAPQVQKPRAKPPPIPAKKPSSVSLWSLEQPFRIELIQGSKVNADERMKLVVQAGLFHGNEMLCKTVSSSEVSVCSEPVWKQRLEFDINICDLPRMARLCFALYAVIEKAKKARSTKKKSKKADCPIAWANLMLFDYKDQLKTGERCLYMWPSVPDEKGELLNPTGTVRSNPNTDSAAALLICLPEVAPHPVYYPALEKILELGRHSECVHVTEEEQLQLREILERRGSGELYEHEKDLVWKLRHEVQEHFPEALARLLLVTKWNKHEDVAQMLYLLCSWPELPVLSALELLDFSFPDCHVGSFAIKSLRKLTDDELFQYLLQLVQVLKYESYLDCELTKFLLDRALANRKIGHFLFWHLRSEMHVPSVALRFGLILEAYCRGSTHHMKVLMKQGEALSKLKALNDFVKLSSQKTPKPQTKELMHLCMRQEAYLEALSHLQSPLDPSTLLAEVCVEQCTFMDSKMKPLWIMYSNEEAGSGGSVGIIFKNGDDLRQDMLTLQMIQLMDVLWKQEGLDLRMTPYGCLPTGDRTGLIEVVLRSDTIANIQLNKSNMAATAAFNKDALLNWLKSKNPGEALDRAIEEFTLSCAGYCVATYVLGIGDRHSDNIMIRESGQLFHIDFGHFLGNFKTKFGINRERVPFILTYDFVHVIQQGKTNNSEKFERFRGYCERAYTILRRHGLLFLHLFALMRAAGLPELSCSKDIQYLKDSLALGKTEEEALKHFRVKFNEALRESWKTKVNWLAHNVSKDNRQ
T5 sequence (P27986 whole entry partner): as the sequence (P27986 whole entry partner) above
T2 sequence (P42338 whole entry): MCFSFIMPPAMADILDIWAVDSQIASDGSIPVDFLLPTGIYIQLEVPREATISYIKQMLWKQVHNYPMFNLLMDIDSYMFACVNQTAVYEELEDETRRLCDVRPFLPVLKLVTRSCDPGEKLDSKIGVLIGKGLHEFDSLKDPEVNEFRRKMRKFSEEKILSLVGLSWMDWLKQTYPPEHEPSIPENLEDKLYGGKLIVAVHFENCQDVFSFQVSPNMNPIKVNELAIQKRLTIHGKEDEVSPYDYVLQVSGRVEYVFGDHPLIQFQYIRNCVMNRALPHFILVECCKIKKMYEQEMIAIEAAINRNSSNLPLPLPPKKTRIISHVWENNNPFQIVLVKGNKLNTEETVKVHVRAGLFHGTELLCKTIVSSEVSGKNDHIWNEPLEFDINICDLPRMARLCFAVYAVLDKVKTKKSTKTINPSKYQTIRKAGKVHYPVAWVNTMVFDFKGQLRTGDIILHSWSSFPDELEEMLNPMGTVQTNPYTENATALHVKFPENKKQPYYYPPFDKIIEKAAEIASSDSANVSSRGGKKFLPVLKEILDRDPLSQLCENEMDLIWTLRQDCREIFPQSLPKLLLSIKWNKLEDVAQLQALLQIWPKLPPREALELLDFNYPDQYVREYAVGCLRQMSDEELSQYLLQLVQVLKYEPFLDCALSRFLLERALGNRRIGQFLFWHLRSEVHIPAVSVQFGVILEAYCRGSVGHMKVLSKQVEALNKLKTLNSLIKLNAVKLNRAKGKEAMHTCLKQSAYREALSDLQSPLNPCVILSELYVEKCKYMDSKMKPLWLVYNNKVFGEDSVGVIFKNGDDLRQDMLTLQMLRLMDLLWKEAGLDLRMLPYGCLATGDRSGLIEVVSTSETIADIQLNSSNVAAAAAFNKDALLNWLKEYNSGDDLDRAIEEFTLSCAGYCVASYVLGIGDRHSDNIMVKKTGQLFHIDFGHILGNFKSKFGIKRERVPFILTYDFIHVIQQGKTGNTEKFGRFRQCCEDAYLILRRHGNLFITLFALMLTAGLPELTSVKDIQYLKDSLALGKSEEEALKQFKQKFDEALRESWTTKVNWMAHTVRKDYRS
T2 sequence (P27986 whole entry partner): as the sequence (P27986 whole entry partner) above

With `C[C@H](Nc1ncnc(N)c1C#N)c1nc2cccc(C#N)c2nc1-c1ccccc1S(C)(=O)=O` [Example 6, 2-((S)-1-(6-amino-5-cyanopyrimidin-4-ylamino)ethyl)-3-(2-(methylsulfonyl)-phenyl)quinoxaline-5-carbonitrile], the IC50 is 2.8 µM in [1]; 5.8 µM in [2]; above 10 µM in assay [4]; 0.006 µM in assay [7]; 11 µM in assay [8]; 0.007 µM in assay [9]. Moreover, the “PI3K: g/d” value in assay [1] is listed as 400. The “PI3K: b/d” value in [3] worked out at 829. Moreover, the “in vivo pAKT data, ED50 (uM) WB” value in [5] is 0.13 (WB) uM. The “PI3Ka IC50” value in [6] was determined as 25.0000 µM. Moreover, the “PI3K: a/d” value in [6] turned out to be 3571.

Turning to `C[C@H](Nc1ncnc(N)c1C#N)c1cc2ccc(F)cc2nc1-c1cccc(F)c1` [Example 3, 4-amino-6-((S)-1-(7-fluoro-2-(3-fluorophenyl)quinolin-3-yl)ethylamino)-pyrimidine-5-carbonitrile], the IC50 in [1] was 0.0629 µM; in assay [2], 0.434 µM; in assay [10] it was 3.8 µM; in [4] it was above 10 µM; in assay [7], 0.0015 µM; in assay [8] it was 0.483 µM. Besides, in assay [9], the IC50 came out at 0.0051 µM. Besides, in assay [1], the “PI3K: g/d” value was found to be 12. Besides, the “PI3K: b/d” value in assay [3] was determined as 85. In [6], the “PI3Ka IC50” value came to 3.4200 µM. In assay [6], the “PI3K: a/d” value is 671.

On to `C[C@H](Nc1ncnc(N)c1C#N)c1cc2ccc(F)cc2nc1-c1ccccc1S(C)(=O)=O` [Example 2, (S)-4-amino-6-((1-(7-fluoro-2-(2-(methylsulfonyl)phenyl)quinolin-3-yl)ethyl)-amino)pyrimidine-5-carbonitrile], for which the IC50 in [1] is 0.804 µM; in assay [2] it was 1.36 µM; in assay [10], above 10 µM; in assay [4] it was above 10 µM; in assay [7], 0.0012 µM; in [8], 0.811 µM. Also, in assay [9], the IC50 stood at 0.0078 µM. Further, the “PI3K: g/d” value in assay [1] worked out at 103. The “PI3K: b/d” value in assay [3] is reported as 174. Besides, in assay [5], the “in vivo pAKT data, ED50 (uM) WB” value is on record as 0.36 uM. In [5], the “in vivo pAKT data, ED50 (uM) spleenocytes” value turned out to be 0.26 uM. Besides, the “PI3Ka IC50” value in assay [6] is 7.0400 µM. In assay [6], the “PI3K: a/d” value is recorded as 903.

For the compound `C[C@H](Nc1ncnc(N)c1C#N)c1cc2ccc(F)cc2nc1-c1ccccn1` [Example 4, 4-amino-6-((S)-1-(7-fluoro-2-(pyridin-2-yl)quinolin-3-yl)ethylamino)-pyrimidine-5-carbonitrile], the IC50 is 0.448 µM in assay [1]; 0.522 µM in assay [2]; 1.95 µM in assay [10]; above 10 µM in assay [4]; 0.0018 µM in [7]; 0.62 µM in assay [8]. In addition, in assay [9], the IC50 was 0.01 µM. For the same compound, the “PI3K: g/d” value in assay [1] is given as 45. The “PI3K: b/d” value in assay [3] came to 52. For the same compound, in assay [6], the “PI3Ka IC50” value turned out to be 12.0600 µM. For the same compound, the “PI3K: a/d” value in [6] was found to be 1206.

Consider `O=C1NC(=O)/C(=C\c2ccc3nccnc3c2)S1` [AS 605240], for which the “efficacy in a mouse model of rheumatoid arthritis” value in assay [11] is “efficacious”. In assay [12], the “onset of disease in a model of systemic lupus erythematosis” value is given as “delay onset of disease”.

Consider `C[C@H](Nc1ncnc(N)c1C#N)c1nc2cccc(Cl)c2nc1-c1ccccc1S(C)(=O)=O` [Example 5, (S)-4-amino-6-((1-(5-chloro-3-(2-(methylsulfonyl)phenyl)quinoxalin-2-yl)-ethyl)amino)pyrimidine-5-carbonitrile], for which the IC50 is 0.62 µM in assay [1]; 0.652 µM in assay [2]; above 10 µM in assay [10]; above 10 µM in assay [4]; 0.005 µM in [7]; above 10 µM in assay [8]. In assay [9], this compound came in with an IC50 of 0.0026 µM. Further, the “PI3K: g/d” value in assay [1] is 238. Besides, the “PI3K: b/d” value in [3] is 251. In [5], the “in vivo pAKT data, ED50 (uM) WB” value is recorded as 0.056 uM. The “in vivo pAKT data, ED50 (uM) spleenocytes” value in assay [5] is given as 0.012 uM. Besides, the “PI3Ka IC50” value in [6] is 5.1600 µM. In assay [6], the “PI3K: a/d” value was 1985.

As to `C[C@H](Nc1ncnc(N)c1C#N)c1cc2cccc(F)c2nc1-c1ccccc1S(C)(=O)=O` [Example 1, 4-amino-6-(((1S)-1-(8-fluoro-2-(2-(methylsulfonyl)phenyl)-3-quinolinyl)-ethyl)amino)-5-pyrimidinecarbonitrile], the IC50 was 1.61 µM in assay [1]; 4.74 µM in assay [2]; 5.97 µM in [10]; above 10 µM in [4]; 0.0022 µM in assay [7]; 2.6 µM in assay [8]. Besides, the IC50 in assay [9] was determined as 0.003 µM. Moreover, the “PI3K: g/d” value in assay [1] is recorded as 537. In assay [3], the “PI3K: b/d” value came out at 1580. In addition, the “in vivo pAKT data, ED50 (uM) WB” value in assay [5] was found to be 0.041 uM. Besides, the “in vivo pAKT data, ED50 (uM) spleenocytes” value in assay [5] was 0.010 uM. The “PI3Ka IC50” value in assay [6] was found to be 9.9800 µM. The “PI3K: a/d” value in assay [6] was found to be 3327.

These data come from patent publication US8835432B2, “Heterocyclic compounds and their uses” (Amgen Inc., priority 2012, dated 2014).
